Earlier results, collected in article PMC6522624, “Comparison of desferrioxamine and NODAGA for the gallium-68 labeling of exendin-4” (EJNMMI Radiopharmacy and Chemistry, 2019).

Experiments:
[1] = in vivo
Excerpt: Insulinomas generally express highly and specifically the glucagon-like peptide-1 receptor (GLP-1R) as they are of β-cell origin (Reubi and Waser [2003]). GLP-1R is a G-protein coupled receptor of the class B receptor family (Zhang et al. [2017]). […] Dipeptidyl peptidase-4 (DPP4) is responsible for the cleavage of the peptide (Baggio and Drucker [2007]).

[2] = gallium chelation; ref Šimeček et al. [2011]; Evers et al. [1989]
Excerpt: However, their thermodynamic complex formation stability constant (log K) have been reported to be very similar, with 28.65 for DFO and 29.63 for NOTA (Šimeček et al. [2011]; Evers et al. [1989]).

| Compound | biological half-life [1] | thermodynamic complex formation stability constant (log K) [2] |
| --- | --- | --- |
| GLP-1: endogenous peptide ligand of GLP-1R | about 2 min |  |
| O=C(O)CN1CCN(CC(=O)O)CCN(CC(=O)O)CC1 [NOTA] |  | 29.63 |
| CC(=O)N(O)CCCCCNC(=O)CCC(=O)N(O)CCCCCNC(=O)CCC(=O)N(O)CCCCCN [DFO, N′-[5-(acetyl-hydroxy-amino)pentyl]-N-[5-[3-(5-aminopentyl-hydroxy-carbamoyl)propanoylamino]pentyl]-N-hydroxy-butane diamide] |  | 28.65 |
